How the values were obtained:
Capivasertib = compound: C1CN(CCC1(C(=O)N[C@@H](CCO)C2=CC=C(C=C2)Cl)N)C3=NC=NC4=C3C=CN4 [Capivasertib]
Summary of the method: (§1)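 Cancer cell lines were plated in 1536-well plates in 7.5 μl of DMEM/F12 or RPMI with 10% FBS and kept 24 hours at 37°C and 5% CO2 before 72 hours of dosing, with final DMSO typically 0.2%. CellTiter-Glo 2.0 luminescence measured viability, scaled between blank-well and DMSO-well means. Dose responses were fitted to a two-parameter logistic curve with a non-linear mixed effects model. This fit gives the single-agent IC50.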

AZD1775 = compound: C=CCn1c(=O)c2cnc(Nc3ccc(N4CCN(C)CC4)cc3)nc2n1-c1cccc(C(C)(C)O)n1 [AZD1775]
Summary of the method: as §1

Trametinib = compound: CC(=O)Nc1cccc(-n2c(=O)n(C3CC3)c(=O)c3c(Nc4ccc(I)cc4F)n(C)c(=O)c(C)c32)c1 [Trametinib]; conditions: max 1 µM
Summary of the method: as §1

Venetoclax = compound: CC1(C)CCC(CN2CCN(c3ccc(C(=O)NS(=O)(=O)c4ccc(NCC5CCOCC5)c([N+](=O)[O-])c4)c(Oc4cnc5[nH]ccc5c4)c3)CC2)=C(c2ccc(Cl)cc2)C1 [Venetoclax]; conditions: max 1 µM
Summary of the method: as §1

SG3199 = compound: CC1=CN2[C@@H](C1)C=NC3=CC(=C(C=C3C2=O)OC)OCCCCCOC4=C(C=C5C(=C4)N=C[C@@H]6CC(=CN6C5=O)C)OC [SG3199]; conditions: max 0.001 µM
Summary of the method: as §1

AZD2811 = compound: CCN(CCO)CCCOc1ccc2c(Nc3cc(CC(=O)Nc4cccc(F)c4)[nH]n3)ncnc2c1 [AZD2811]; conditions: max 1 µM
Summary of the method: as §1

SN-38 = compound: CCc1c2c(nc3ccc(O)cc13)-c1cc3c(c(=O)n1C2)COC(=O)[C@]3(O)CC [SN-38]; conditions: max 0.3 µM
Summary of the method: as §1

AZD0156 = compound: CN(C)CCCOc1ccc(-c2ccc3ncc4c(c3c2)n(C2CCOCC2)c(=O)n4C)cn1 [AZD0156]
Summary of the method: as §1

AZD4320 = compound: CN(CC[C@H](CSC1=CC=CC=C1)NC2=C(C=C(C=C2)S(=O)(=O)NC(=O)C3=CC=C(C=C3)N4CCC(CC4)[C@H](C5=CC=CC=C5C6=CC=C(C=C6)Cl)O)S(=O)(=O)C(F)(F)F)CCO [AZD4320]; conditions: max 1 µM
Summary of the method: as §1

Alisertib = compound: COc1cc(Nc2ncc3c(n2)-c2ccc(Cl)cc2C(c2c(F)cccc2OC)=NC3)ccc1C(=O)O [Alisertib]; conditions: max 10 µM
Summary of the method: as §1

Prexasertib = compound: COc1cccc(OCCCN)c1-c1cc(Nc2cnc(C#N)cn2)n[nH]1 [Prexasertib]; conditions: max 1 µM
Summary of the method: as §1

Doxorubicin = compound: COc1cccc2c1C(=O)c1c(O)c3c(c(O)c1C2=O)C[C@@](O)(C(=O)CO)C[C@@H]3O[C@H]1C[C@H](N)[C@H](O)[C@H](C)O1 [Doxorubicin]; conditions: max 1 µM
Summary of the method: as §1

AZD8186 = compound: C[C@@H](Nc1cc(F)cc(F)c1)c1cc(C(=O)N(C)C)cc2c(=O)cc(N3CCOCC3)oc12 [AZD8186]; conditions: max 3 µM
Summary of the method: as §1

AZD6738 = compound: C[C@@H]1COCCN1C2=NC(=NC(=C2)C3(CC3)[S@](=N)(=O)C)C4=C5C=CNC5=NC=C4 [AZD6738]; conditions: max 10 µM
Summary of the method: as §1

AZD5991 = compound: Cc1c2c(nn1C)CSCc1cc(n(C)n1)CSc1cc(c3ccccc3c1)OCCCc1c(C(=O)O)n(C)c3c-2c(Cl)ccc13 [AZD5991]; conditions: max 1 µM
Summary of the method: as §1

AZD7648 = compound: Cc1cc2ncnn2cc1Nc1ncc2c(n1)n(C1CCOCC1)c(=O)n2C [AZD7648]; conditions: max 10 µM
Summary of the method: as §1

Taselisib = compound: Cc1nc(-c2cn3c(n2)-c2ccc(-c4cnn(C(C)(C)C(N)=O)c4)cc2OCC3)n(C(C)C)n1 [Taselisib]; conditions: max 10 µM
Summary of the method: as §1

Selumetinib = compound: Cn1cnc2c(F)c(Nc3ccc(Br)cc3Cl)c(C(=O)NOCCO)cc21 [Selumetinib]
Summary of the method: as §1

Olaparib = compound: O=C(c1cc(Cc2n[nH]c(=O)c3ccccc23)ccc1F)N1CCN(C(=O)C2CC2)CC1 [Olaparib]; conditions: max 10 µM
Summary of the method: as §1

Palbociclib = compound: CC(=O)c1c(C)c2cnc(Nc3ccc(N4CCNCC4)cn3)nc2n(C2CCCC2)c1=O [Palbociclib]; conditions: max 10 µM
Summary of the method: as §1

AZD1390 = compound: CC(C)n1c(=O)n(C)c2cnc3cc(F)c(-c4ccc(OCCCN5CCCCC5)nc4)cc3c21 [AZD1390]; conditions: max 0.3 µM
Summary of the method: as §1

Dasatinib = compound: CC1=C(C(=CC=C1)Cl)NC(=O)C2=CN=C(S2)NC3=CC(=NC(=N3)C)N4CCN(CC4)CCO [Dasatinib]; conditions: max 2 µM
Summary of the method: as §1

Gefitinib = compound: COc1cc2ncnc(Nc3ccc(F)c(Cl)c3)c2cc1OCCCN1CCOCC1 [Gefitinib]; conditions: max 10 µM
Summary of the method: as §1

AZD5153 = compound: COc1nnc2ccc(N3CCC(c4ccc(OCCN5CCN(C)C(=O)[C@H]5C)cc4)CC3)nn12 [AZD5153]; conditions: max 1 µM
Summary of the method: as §1

Lapatinib = compound: CS(=O)(=O)CCNCc1ccc(-c2ccc3ncnc(Nc4ccc(OCc5cccc(F)c5)c(Cl)c4)c3c2)o1 [Lapatinib]; conditions: max 10 µM
Summary of the method: as §1

Crizotinib = compound: C[C@@H](Oc1cc(-c2cnn(C3CCNCC3)c2)cnc1N)c1c(Cl)ccc(F)c1Cl [Crizotinib]; conditions: max 10 µM
Summary of the method: as §1

Savolitinib = compound: C[C@@H](c1ccc2nccn2c1)n1nnc2ncc(-c3cnn(C)c3)nc21 [Savolitinib]; conditions: max 1 µM
Summary of the method: as §1

Cell Line | IC50, cell viability 72 h (Capivasertib; max 3 µM) | IC50, cell viability 72 h (AZD1775; max 1 µM) | IC50, cell viability 72 h (Trametinib) | IC50, cell viability 72 h (Venetoclax) | IC50, cell viability 72 h (SG3199) | IC50, cell viability 72 h (AZD2811) | IC50, cell viability 72 h (SN-38) | IC50, cell viability 72 h (AZD0156; max 1 µM) | IC50, cell viability 72 h (AZD4320) | IC50, cell viability 72 h (Alisertib) | IC50, cell viability 72 h (Prexasertib) | IC50, cell viability 72 h (Doxorubicin) | IC50, cell viability 72 h (AZD8186) | IC50, cell viability 72 h (AZD6738) | IC50, cell viability 72 h (AZD5991) | IC50, cell viability 72 h (AZD7648) | IC50, cell viability 72 h (Taselisib) | IC50, cell viability 72 h (Selumetinib; max 3 µM) | IC50, cell viability 72 h (Olaparib) | IC50, cell viability 72 h (Capivasertib; max 10 µM) | IC50, cell viability 72 h (AZD1775; max 3 µM) | IC50, cell viability 72 h (Palbociclib) | IC50, cell viability 72 h (AZD1390) | IC50, cell viability 72 h (Dasatinib) | IC50, cell viability 72 h (AZD0156; max 3 µM) | IC50, cell viability 72 h (Gefitinib) | IC50, cell viability 72 h (AZD5153) | IC50, cell viability 72 h (Lapatinib) | IC50, cell viability 72 h (Crizotinib) | IC50, cell viability 72 h (Savolitinib) | IC50, cell viability 72 h (Selumetinib; max 10 µM)
Caov-3 (Ovarian Carcinoma) | > 3 µM | 0.453 µM | > 1 µM | > 1 µM | > 0.001 µM | 0.0487 µM | 0.00551 µM | > 1 µM | > 1 µM | 0.0305 µM | 0.0355 µM | 0.316 µM | > 3 µM | 2.74 µM | > 1 µM | > 10 µM | 5.61 µM | > 3 µM | > 10 µM | – | – | – | – | – | – | – | – | – | – | – | –
HSC-3 (Oral Cavity Carcinoma) | – | – | 0.216 µM | > 1 µM | > 0.001 µM | > 1 µM | 0.0185 µM | – | > 1 µM | 3.39 µM | 0.213 µM | > 1 µM | > 3 µM | > 10 µM | > 1 µM | > 10 µM | 2.26 µM | – | > 10 µM | 4.55 µM | 1.73 µM | > 10 µM | > 0.3 µM | 0.877 µM | > 3 µM | 6.9 µM | 0.123 µM | 2.31 µM | 5.82 µM | > 1 µM | > 10 µM
HTC-C3 (Thyroid Gland Carcinoma) | – | – | 0.0318 µM | > 1 µM | > 0.001 µM | > 1 µM | > 0.3 µM | – | > 1 µM | > 10 µM | 0.128 µM | > 1 µM | > 3 µM | 3.09 µM | > 1 µM | > 10 µM | > 10 µM | – | > 10 µM | > 10 µM | 2.3 µM | > 10 µM | > 0.3 µM | 0.128 µM | > 3 µM | > 10 µM | 0.13 µM | > 10 µM | > 10 µM | > 1 µM | 0.941 µM
JHH-1 (Hepatocellular Carcinoma) | – | – | 0.41 µM | > 1 µM | > 0.001 µM | > 1 µM | > 0.3 µM | – | > 1 µM | > 10 µM | 0.259 µM | > 1 µM | > 3 µM | > 10 µM | > 1 µM | > 10 µM | > 10 µM | – | > 10 µM | > 10 µM | 1.27 µM | > 10 µM | > 0.3 µM | > 2 µM | > 3 µM | > 10 µM | > 1 µM | > 10 µM | > 10 µM | > 1 µM | > 10 µM
NCI-H196 (Small Cell Lung Carcinoma) | – | – | > 1 µM | > 1 µM | > 0.001 µM | > 1 µM | > 0.3 µM | – | > 1 µM | > 10 µM | 0.17 µM | > 1 µM | > 3 µM | > 10 µM | > 1 µM | > 10 µM | > 10 µM | – | > 10 µM | > 10 µM | 2.11 µM | > 10 µM | > 0.3 µM | > 2 µM | > 3 µM | > 10 µM | > 1 µM | > 10 µM | > 10 µM | > 1 µM | > 10 µM
